Measurements reported in US8354539B2, “Indole derivatives as IKK2 inhibitors” (Glaxo Group Limited, priority 2009, dated 2013).

Columns and labels:
[1] = biological target: T1, Recombinant human IKK1 (Homo sapiens, UniProt O15111); experiment: IKK1 time-resolved fluorescence resonance energy transfer assay; type: biochemical; details: IKK2 assay and IKK2 time dependent assay versus IKK1 TR-FRET assay
T1 construct: Recombinant human IKK1 (residues 1-785); 6HIS (C); made in house
T1 sequence (O15111 1-745): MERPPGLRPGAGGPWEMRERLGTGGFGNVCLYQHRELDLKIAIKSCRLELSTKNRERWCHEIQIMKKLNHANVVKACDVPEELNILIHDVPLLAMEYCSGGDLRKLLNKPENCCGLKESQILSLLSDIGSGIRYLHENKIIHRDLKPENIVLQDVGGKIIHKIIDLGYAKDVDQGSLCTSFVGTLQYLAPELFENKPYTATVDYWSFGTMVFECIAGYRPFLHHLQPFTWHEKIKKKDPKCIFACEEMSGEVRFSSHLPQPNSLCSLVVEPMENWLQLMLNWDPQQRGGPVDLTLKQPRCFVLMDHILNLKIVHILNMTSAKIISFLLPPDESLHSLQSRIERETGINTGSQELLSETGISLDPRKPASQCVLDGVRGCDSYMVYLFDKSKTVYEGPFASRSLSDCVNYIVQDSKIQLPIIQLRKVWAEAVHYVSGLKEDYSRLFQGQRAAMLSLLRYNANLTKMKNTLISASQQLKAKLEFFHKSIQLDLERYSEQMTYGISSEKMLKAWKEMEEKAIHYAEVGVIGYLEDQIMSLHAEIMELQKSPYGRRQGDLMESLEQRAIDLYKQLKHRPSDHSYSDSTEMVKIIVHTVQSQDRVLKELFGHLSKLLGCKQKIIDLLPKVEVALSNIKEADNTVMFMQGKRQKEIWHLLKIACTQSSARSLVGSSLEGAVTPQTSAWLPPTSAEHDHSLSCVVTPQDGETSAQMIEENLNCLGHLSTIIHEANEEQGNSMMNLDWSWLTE
Description: Recombinant human IKK1 (residues 1-785) was expressed in baculovirus as a C-terminal 6HIS-tagged fusion protein, and its activity was assessed using a time-resolved fluorescence resonance energy transfer (TR-FRET) assay. Briefly, IKK1 (typically 5-10 nM final) diluted in assay buffer (50 mM HEPES, 10 mM MgCl2, 1 mM CHAPS pH 7.4 with 1 mM DTT and 0.01% w/v BSA) was added to wells containing various concentrations of compound or DMSO vehicle (1.7% v/v final). The reaction was initiated by the addition of GST-IκBα substrate (25 nM final)/ATP (1 μM final), in a total volume of 6 μl. The reaction was incubated for 15 minutes at room temperature, then terminated by the addition of stop reagent (3 μl) containing 50 mM EDTA and detection reagents in buffer (100 mM HEPES pH 7.4, 150 mM NaCl and 0.01% w/v BSA). […] The degree of phosphorylation of GST-IκBα was measured using a suitable time-resolved fluorimeter such as Packard Discovery (Perkin-Elmer Life Sciences, Pangbourne, Berkshire, UK), Wallac Viewlux (Perkin-Elmer Life Sciences, Pangbourne, Berkshire, UK), Envision (Perkin-Elmer Life Sciences, Pangbourne, Berkshire, UK), or Rubystar (BMG, Aylesbury, Buckinghamshire, UK) as a ratio of specific 665 nm energy transfer signal to reference europium 620 nm signal.

[2] = tested on: LPS induced neutrophilia; experiment: Inhaled LPS induced neutrophilia in the male CD rat; type: in vivo; details: dose of 300 ug/kg i.t.
Description: Male CD rats (150-250 g) were anaesthetised with isoflurane (5%, 2 L/min O2, 1 L/min […]) and positioned on their back on a dosing table at a 35 degree angle, with a metal rod placed under their incisors to keep them in place. A light was angled against the outside of the throat to highlight the trachea. The mouth was opened to visualise the upper opening of the airway and a portex cannula was introduced into the trachea via a blunt dosing needle. 200 ul of compound formulation was then injected into the airways. After dosing, animals were placed in a supine position during recovery from anaesthesia.
Approximately thirty minutes following dosing of compound or vehicle, the rats were placed into a cloud chamber and exposed to an aerosol of lipopolysaccharide, generated from a 150 ug/ml solution for 15 min.
Four hours following LPS challenge the animals were culled with an overdose of sodium pentobarbitone given intraperitoneally. The trachea was exposed and a small incision made, into which a tube was inserted towards the lungs. The lungs were then washed with 3 times with 5 mls heparinised (10 U/ml) PBS.
The bronchoalveolar lavage fluid (BALF) samples were centrifuged at 1300 rpm for 7 minutes. […] The total cells were also counted from the resuspension using a Sysmex counter. From these two counts, the total numbers of neutrophils in the BALF were determined.

`COCCS(=O)(=O)N1CCC(c2c[nH]c3c(C(N)=O)cc(-c4ccc5c(c4)CN(C(C)C)C5)cc23)CC1` [Compound of formula (I), 5-[2-(1-methylethyl)-2,3-dihydro-1H-isoindol-5-yl]-3-(1-{[2-(methyloxy)ethyl]sulfonyl}-4-piperidinyl)-1H-indole-7-carboxamide] was tested, and the “potency at IKK2 relative to IKK1” value [1] was “inhibited IKK2 with greater potency than IKK1” and the “inhibition of LPS induced neutrophilia” value [2] was “greater than 75%”.
